Legend:
[1] = target: T1, CCR5 receptors expressed in HEK-293 cells (Homo sapiens, UniProt P51681); assay: Intracellular calcium release, CCL5-stimulated CCR5 in HEK-293 cells; format: cell-based; settings: CCR5 expressing HEK cells stimulated by CCL5
T1 construct: expressed in transfected cells; host or cells: HEK-293 cells, transient transfection with Lipofectamine 2000
Method: Briefly, HEK-293 cells were cultured at 37° C. in Dulbelcco's modified Eagle's medium supplemented with 10% fetal bovine serum and 1% Penicillin/Streptomycin. Then 100 mm^2 were transiently transfected with CCR5 receptor cDNA using OptiMEM-1 medium (Invitrogen) and Lipofectamine 2000 (Invitrogen, Carlsbad, Calif.) reagent according to manufacturer's protocol (1:2 wt/vol ratio for DNA:Lipofectamine; 16 μg DNA: 32 μl Lipofectamine). The cells were seeded into 96 well plates (half-area; Corning) at 20,000 cells/well after 24 hours and assayed 48 hours after transfection using the FLIPR calcium kit (Molecular Devices) in a Flexstation-III apparatus (Molecular Devices). Cells were incubated with the calcium dye for 45 minutes at 37° C. before the antagonists were added to each well at the concentration listed, and incubated at 37° C. for 15 minutes. The control agonist, CCL5 (RANTES), was added at a concentration that elicited an 80% maximal response in untreated cells (100 nM) to each well and the calcium response measured with and without antagonists for 90 seconds. The change in RFU was calculated by subtracting the minimum relative fluorescent unit (RFU) from the maximum RFU response, replicated 6 times and averaged. Each experiment was repeated at least 3 times and the mean±SEM was plotted for each treatment group. Plates were 80-90% confluent, cells

control mice = assay: Radiant heat tail-flick antinociception, control (LPS-untreated) mice; format: in vivo; settings: control mice
Excerpt: Pain is a hallmark of many inflammatory conditions.

[2] = system: CFA-induced mechanical hyperalgesia mouse model; assay: Complete Freund's Adjuvant (CFA) mechanical hyperalgesia, electronic von Frey; format: in vivo, mice; settings: i.t.
Method: Before injection of CFA baseline withdrawal thresholds (g) were obtained from a mechanical stimulation using an electronic von Frey anesthesiometer (IITC Life Sciences, Woodland Hills, USA) by applying an accurate force on both left and right hind paw. (2,3) The left hindpaws were then injected (intraplantar) with a 50% solution of CFA (10 μg, Sigma-Aldrich) in water while the mice are under isoflurane anesthesia (10). Twenty-four hours later the withdrawal threshold (g) was again measured prior to and after the test compound i.t. at 10, 20, 30 and 60 minutes to determine the peak time and subsequent ED50. % MPE was calculated ((Time-point withdrawal threshold with drug−CFA withdrawal threshold)/(Day 0 withdrawal threshold−CFA withdrawal threshold))*100 (Wade, C. L., et al., PLoS One 2013, 8, e79239/1-e79239/11, 11 pp; Martinov, T., et al., J Vis Exp 2013, e51212; Sorge, R. E., et al., J. Neurosci. 2011, 31, 15450-15454).

[3] = system: mice with cisplatin-induced hyperalgesia; assay: Cisplatin-induced peripheral neuropathy, mechanical hyperalgesia (von Frey); format: in vivo, C3H/HeJ mice; settings: cisplatin model
Method: Adult male C3H/HeJ mice were tested for mechanical paw withdrawal responses on 2 consecutive days prior to treatment by determining the frequency of hind paw withdrawal evoked by a standard von Frey monofilament with a bending force of 3.9 mN applied to the plantar surface of the hind paws. Mice were then given 1 mg/kg of cisplatin intraperitoneal (i.p.) daily for 7 consecutive days and on day 14 post-injection, mechanical hyperalgesia was assessed. Compounds were administered intrathecally (i.t.) and i.p. weekly to determine peak time effects and ED50/80.

LPS-pretreated mice = assay: animal or person
Method: Male ICR-CD1 mice (17-25 g; Harlan, Madison, Wis.), C3H mice (15-20 g, National Cancer Institute, Bethesda, Md.) or TLR4 knock-out mice (gift from Dr. Sabita Roy) were housed, 4 to a small box in a temperature- and humidity-controlled environment with unlimited access to food and water. They were maintained on a 12 h light/dark cycle. All experiments were approved by the Institutional Animal Care and Use Committee of the University of Minnesota (Minneapolis, Minn.).
The tail flick assay is used to test for antinociception described by D'Amour and Smith^64 and modified by Dewey et. al.^65 Mice are held gently in one hand with the tail positioned in the apparatus (Tail Flick Analgesia Meter, Columbus Instruments, Columbus, Ohio) for radiant heat stimulus. The tail-flick response is elicited by applying radiant heat to the dorsal side of the tail. The test latency is measured before drug treatment (control) and again after the drug treatment (test) at the peak time of the compound, a 10 s maximum cut-off time is used to prevent damage to the tail. Antinociception is quantified according to the method of Harris and Pierson^66 as the percent maximal possible effect (% MPE) which is calculated as: % MPE=(Test−Control/10−Control)×100
A minimum of three groups of eight to ten mice are used for each dose response curve, and each mouse is used only once.
The compounds were tested for acute tolerance by comparing the ED80-90 dose measured on day 1 to the same dose administered and retested 24 hours later on the same mouse.
Compounds were dissolved in 5% DMSO and diluted to less than 1% DMSO for injection. These compounds were administered in a volume of 5-μl either i.c.v (Haley and McCormick) or intrathecal (i.t.) as described for mice by Hylden and Wilcox^67 in conscious mice. […] Time course studies, including the times 5, 10, 20, 30 and 60 minutes were used to determine the peak antinociception.
Pain is a hallmark of many inflammatory conditions. […] Antinociception was evaluated using the radiant heat-induced tailflick assay. Morphine was employed as a standard opioid agonist under these conditions.

T1 sequence (P51681 whole entry): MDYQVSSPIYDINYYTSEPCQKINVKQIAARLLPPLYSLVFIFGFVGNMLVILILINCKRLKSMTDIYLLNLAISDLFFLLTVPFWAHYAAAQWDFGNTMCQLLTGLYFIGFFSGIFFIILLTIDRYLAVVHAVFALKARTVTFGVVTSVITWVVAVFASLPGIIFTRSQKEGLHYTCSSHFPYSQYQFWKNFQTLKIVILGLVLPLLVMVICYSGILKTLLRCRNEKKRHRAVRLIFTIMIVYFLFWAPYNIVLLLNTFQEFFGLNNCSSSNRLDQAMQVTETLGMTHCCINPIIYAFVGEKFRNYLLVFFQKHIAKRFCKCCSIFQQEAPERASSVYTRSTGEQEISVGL

| Compound | inhibiting calcium release (compared with TAK-220) [1] | CONTROLS i.c.v./i.t. ratio (control mice) | CONTROLS ED50 (CI) i.c.v. (control mice; i.c.v., tail flick) [pmol/mouse] | CONTROLS ED50 (CI) i.t. (control mice; i.t., tail flick) [pmol/mouse] | ED50 values (95% CI) CFA (mechanical) [2] [pmol/mouse] | ED50 (95% CI) i.p. ([3]; i.p.) [pmol/mouse] | tolerance ([3]; i.p.) | tolerance ([3]; i.p., listed as morphine) | ED50 (95% CI) i.t. ([3]; i.t.) [pmol/mouse] | tolerance ([3]; i.t.) | LPS pretreated i.c.v./i.t. ratio (LPS-pretreated mice; LPS 1 mg/kg 24 hours i.p.) | LPS pretreated ED50 (CI) i.c.v. (LPS-pretreated mice; LPS 1 mg/kg 24 hours i.p., i.c.v., tail flick) [pmol/mouse] | LPS pretreated ED50 (CI) i.t. (LPS-pretreated mice; LPS 1 mg/kg 24 hours i.p., i.t., tail flick) [pmol/mouse] | ED50 values (95% CI) LPS (thermal) (LPS-pretreated mice; i.t., LPS thermal hyperalgesia model) [pmol/mouse] | tolerance upon repeated administration (LPS-pretreated mice; i.t., LPS-pretreated mice) |
| --- | --- | --- | --- | --- | --- | --- | --- | --- | --- | --- | --- | --- | --- | --- | --- |
| CNC(=O)COCC(=O)N1CCC(CC(=O)N(CCCN2CCC(Cc3ccc(C(N)=O)cc3)CC2)c2ccc(C)c(Cl)c2)CC1 [Compound 8c, N-(3-(4-(4-carbamoylbenzyl)piperidin-1-yl)propyl)-N-(3-chloro-4-methylphenyl)-1-(2-(2-(methylamino)-2-oxoethoxy)acetyl)piperidine-4-carboxyamide] | equally potent | – | – | – | – | – | – | – | – | – | – | – | – | – | – |
| CN1CC[C@]23c4c5ccc(O)c4O[C@H]2[C@@H](O)C=C[C@H]3[C@H]1C5 [Morphine, morphine, reference compound] | – | 11.1 | 301 | 27.0 | 15 | 14.28 | significant tolerance | exhibits 24 h tolerance | 27.44 | significant tolerance | 8.60 | 301 | 35.0 | 35 | exhibited tolerance |
